Results: patent US12691179B2, “Somatostatin receptor-based cancer therapy” (Vikas Kundra, priority 2010, dated 2026)
“Also recorded” adds a separate entry of the source. Read-outs that look alike come from different tables or passages of the source.

How the values were obtained:
[1] = tested on: HT1080 tumors expressing HA-SSTR2 wild-type, HA-D314 or vector
Experimental: (§1) Stably transfected HT1080 cells were implanted subcutaneously in nude mice (three tumors, HA-wt, HA-D314, vector, per animal). When tumors were palpable, daily injections of the somatostatin analogue sandostatin were initiated and tumors were measured by calipers every two days.
(§2) Stably transfected HT1080 cells were implanted subcutaneously in nude mice (three tumors, HA-wt, HA-D314, vector, per animal).
(§3) Stably transfected HT1080 cells were implanted subcutaneously in nude mice (three tumors, HA-wt, HA-D314, vector, per animal). When tumors were palpable, 90Y-octreotate was given once at a dose of 1 mCi (FIG. 7A) or twice at doses of 2 mCi and 1 mCi (FIG. 7B).
as §1, §2, §3

[2] = tested on: HT1080 cells expressing wild-type or signaling deficient HA-SSTR2 receptors, or vector transfected; experiment: Cell death by trypan blue uptake in stably transfected HT1080 cells; type: cell-based
Experimental: Stably transfected HT1080 cells were exposed to different amounts of ^90Y-DOTATATE for 1 hour and 72 hours.

[3] = tested on: Mouse ES cell-derived tumors expressing HA-SSTR2 or HA-SSTR2delta314; experiment: Growth of embryonic stem cell-derived teratomas measured by calipers; type: in vivo, nude mice; settings: tumors derived from wild type ES cells, i.v. twice
Experimental: Mouse ES cells (these are pluripotent stem cells that can be used to create transgenic mice and like most ES cells result in teratomas when injected in nude mice) were transfected with a plasmid containing HA-SSTR2 or HA-SSTR2delta314. Clones were then selected for expression. The cells were then injected into nude mice subcutaneously and tumor size was measured by calipers. After tumors were present in three locations per mouse in all 8 mice, the animals were injected i.v. with 90-Y labeled octreotate two days and 5 days later.
After tumors were present in three locations per mouse in all 8 mice, the animals were injected i.v. with 90-Y labeled octreotate two days and 5 days later as on the chart. Tumor size was measured by calipers. Unlike many stem cells, embryonic stem cells (ES) more commonly form teratomas. Inhibition of growth of established teratomas was assessed.

[4] = tested on: Human ovarian cancer (Hey A8) tumors incorporating HS5 cells; experiment: Growth of Hey A8 tumors co-injected with HS5 cells expressing or not expressing HA-SSTR2D314; type: in vivo, nude mice; settings: intravenous
Description: FIG. 8: Stem cells expressing the signaling deficient mutant SSTR2D314 incorporate into tumor and can be targeted with a therapeutic for Inhibiting tumor growth.
Stem cells expressing the signaling deficient mutant SSTR2D314 incorporated into tumor and can be targeted with a therapeutic for inhibiting tumor growth (FIG. 8). […] Human ovarian cancer (Hey A8) cells were co-injected subcutaneously in nude mice with HS5 cells expressing or not expressing HA-SSTR2D314. […] Once tumors were established, 90Y-octreotate was delivered intravenously. Tumors were measured by calipers every two days. Tumors incorporating HS5 cells expressing the HA-SSTR2D314 mutant were growth inhibited compared to control (*p<0.05, HeyA8+HS5-SSTR2D314 vs HeyA8+HS5vector). The incorporated stem cells, but not the tumor cells, serve as a target for the therapeutic.

[5] = tested on: Human ovarian cancer (Hey A8) tumors to which HS5 cells homed; experiment: Growth of Hey A8 tumors after systemic (intracardiac) injection of HS5 cells expressing or not expressing HA-SSTR2D314; type: in vivo, nude mice; settings: HeyA8 tumors, intravenous
Experimental: FIG. 9: Stem cells expressing the signaling deficient mutant SSTR2D314 home to and incorporate into tumor and can be targeted with a therapeutic for inhibiting tumor growth.
Stem cells expressing the signaling deficient mutant SSTR2D314 home to and incorporate into tumor and can be targeted with a therapeutic for inhibiting tumor growth (FIG. 9). […] Human ovarian cancer (Hey A8) cells on one side and vehicle on the other side were injected subcutaneously in nude. Two days later, human mesenchymal stem cells (HS5 cells) expressing or not expressing HA-SSTR2D314 were injected systemically (intracardiac). […] Tumors were seen on the side injected with HeyA8 cells. Once tumors were established, 90Y-octreotate was delivered intravenously. Tumors were measured by calipers every two days. Tumors to which HS5 cells expressing the HA-SSTR2D314 mutant homed and incorporated were growth inhibited compared to control (*p<0.05, HeyA8+HS5-SSTR2D314 vs HeyA8+HS5vector). The incorporated stem cells not the tumor cells serve as a target for the therapeutic.

[6] = tested on: untransfected HT1080 cells admixed with HS5 cells; experiment: Bystander cell death, live/dead staining of HS5 mesenchymal stem cells admixed with untransfected HT1080 cells; type: cell-based, human; settings: HS5 stably expressing wild-type or signaling deficient HA-SSTR2 admixed with untransfected HT1080, 24 hours
Experimental: FIG. 4: Exposure to 90Y-DOTA-octreotate (DOTATATE) results in bystander cell death of tumor cells. Human mesenchymal stem cells (HS5) stably expressing wild-type or signaling deficient HA-SSTR2 receptors or transfected with vector were admixed with untransfected HT1080 cells and then exposed to 90Y-DOTATATE for 24 hours. Then, live (green)/dead (red) staining was performed.
Mixing mesenchymal stem cells expressing SSTR2 or the signaling deficient mutant delta 314 with untransfected tumor cells results in kill of rosettes of clusters of cells that are not seen if mesenchymal stem cells transfected with vector are used (FIG. 4), consistent with bystander killing. Human mesenchymal stem cells (HS5) stably expressing wild-type or signaling deficient HA-SSTR2 receptors or transfected with vector were admixed with untransfected HT1080 cells and then exposed to 90Y-DOTATATE for 24 hours.

[7] = tested on: HT1080 cells (fibrosarcoma cells that do not endogenously express SSTR2); experiment: MTT cell growth assay of HT1080 cells transfected with HA-SSTR2 wild-type or C-terminal deletions; type: cell-based; settings: 5% FBS, with or without 100 nM sandostatin, three days
Experimental: Three days later, MTT assay was used to determine cell number.
In the following experiments, HA-tagged receptors were used.
(§4) Two days after transient transfection with HA-SSTR2D351 or HA-SSTR2D340, 3000 HT1080 cells were grown in the presence of 5% FBS with or without 100 nM of the somatostatin analogue sandostatin. Three days later, MTT assay was used to determine cell number.

HeyA8 tumors = experiment: Growth of HeyA8 tumors injected with adenovirus expressing HA-SSTR2delta340; type: in vivo; settings: HeyA8 tumors in nude mice, intratumoral adenovirus
Experimental: FIG. 12. Constitutively active SSTR2delta340 inhibits the growth of tumor cells. Nude mice were Injected subcutaneously with HeyA8 tumors cells and then each tumor was injected with adenovirus expressing HA-SSTR2delta340 or control inserts (8 tumors per group). Tumor size was measured by calipers. *p<0.05, tumors injected with adv-HA-SSTR2delta340 and given saline vs tumors injected with adv-GFP and given saline; for clarity only the comparison of these two groups is illustrated with *.
as §4

[8] = stably transfected HT1080 cells

octreotide
tumor growth (calipers) ([1]; tumors expressing signaling deficient receptor (HA-D314), daily injections): no decrease in tumor size was seen | tumor growth (calipers) ([1]; tumors expressing wild-type receptor, daily injections): inhibited growth of tumors expressing wild-type receptor | tumor growth (calipers) ([1]; tumors from vector transfected cells, daily injections): not the signaling deficient receptor or tumors derived from vector transfected cells

[^90Y-DOTA]-octreotate [90Y-DOTATATE]
cell death (trypan blue uptake) ([2]; HT1080 cells expressing signaling deficient HA-SSTR2, exposure 1 hour and 72 hours): Dose dependent and time dependent killing was observed | cell death (trypan blue uptake) ([2]; HT1080 cells expressing wild-type HA-SSTR2, exposure 1 hour and 72 hours): Dose dependent and time dependent killing was observed | teratoma growth (calipers) [3]: not tumors derived from wild type ES cells | tumor growth (calipers) ([4]; HeyA8+HS5-SSTR2D314 co-injected subcutaneously): inhibited growth of human tumors incorporating HS5 human mesenchymal stem cells expressing SSTR2D314 | tumor growth (calipers) ([4]; HeyA8+control HS5 (vector) co-injected subcutaneously): not control HS5 cells | tumor growth (calipers) ([1]; tumors expressing signaling deficient receptor (HA-D314), once 1 mCi or twice 2 mCi and 1 mCi, listed as 90Y-octreotate): inhibited growth of tumors expressing wild-type or signaling deficient receptors; also recorded: decreased in size in a dose dependent manner | tumor growth (calipers) ([1]; tumors expressing wild-type receptor, once 1 mCi or twice 2 mCi and 1 mCi): inhibited growth of tumors expressing wild-type or signaling deficient receptors | tumor growth (calipers) ([1]; tumors from vector transfected cells, once 1 mCi or twice 2 mCi and 1 mCi): not tumors derived from vector transfected cells | tumor growth (calipers) ([5]; HS5 expressing HA-SSTR2D314 injected intracardiac): inhibited growth of human tumors to which human mesenchymal stem cells expressing HA-SSTR2D314 homed and incorporated | tumor growth (calipers) ([5]; control HS5 injected intracardiac): not control HS5 cells | bystander cell death (live/dead staining) [6]: Rosettes (clusters) of dead cells were seen

HA-SSTR2D314: signaling deficient human SSTR2 truncated carboxy terminal to amino acid 314 (amino acids 1-314 of SEQ ID NO:6), HA-tagged
cell growth (cell number by MTT assay) [7, 8]: does not inhibit cellular growth upon ligand stimulation

wild-type SSTR2: HA-tagged wild-type (full length) human somatostatin receptor type 2
cell growth (cell number by MTT assay) [7, 8]: require ligand stimulation to inhibit growth

HA-SSTR2D340: constitutively active human SSTR2 mutant, C-terminal amino acids after position 340 deleted (amino acids 1-340 of SEQ ID NO:6), HA-tagged
tumor growth (size by calipers) (HeyA8 tumors): inhibits the growth of tumor cells in vivo | cell growth (cell number by MTT assay) [7, 8]: inhibits growth even without ligand stimulation | cell growth (cell number by MTT assay) ([7]; transiently transfected HT1080 cells): inhibit growth even without ligand stimulation
